Laboratory results: patent US9062074B2, “(9E)-15-(2-pyrrolidin-1-yl-ethoxy)-7,12,25-trioxa-19,21,24-triaza-tetracyclo[18.3.1.1(2.5).1(14,18)]hexacosa-1(24),2,4,9,14,16,18(26),20,22-nonaene citrate salt” (CTI BioPharma Corp., priority 2009, dated 2015)

Experiment: Gravimetric Vapour Sorption (GVS)
Assay type: physicochemical
Procedure: Sorption isotherms were obtained using a SMS DVS Intrinsic moisture sorption analyser, controlled by SMS Analysis Suite software. The sample temperature was maintained at 25° C. by the instrument controls. The humidity was controlled by mixing streams of dry and wet nitrogen, with a total flow rate of 200 ml.min^−1. The relative humidity was measured by a calibrated Rotronic probe (dynamic range of 1.0-100% RH), located near the sample. The weight change, (mass relaxation) of the sample as a function of % RH was constantly monitored by the microbalance (accuracy ±0.005 mg). Typically 5-20 mg of sample was placed in a tared mesh stainless steel basket under ambient conditions. The sample was loaded and unloaded at 40% RH and 25° C. (typical room conditions). A moisture sorption isotherm was performed as outlined below (2 scans giving 1 complete cycle). The standard isotherm was performed at 25° C. at 10% RH intervals over a 0.5-90% RH range.
The hygroscopicity of the citrate was investigated by carrying out a gravimetric vapour sorption experiment on Batch 4. A sample of approximately 20 mg was held at 25° C. whilst the humidity of its environment was changed through two complete cycles. […] The sample takes longer to reach equilibrium in the early stages of the experiment. This may be due to displacement of residual solvent.

Gravimetric Vapour Sorption Max weight change: < 1%
Sorp Mass Change (Cycle 1 adsorption, Target RH 40.0%, 25° C.): −0.1186%
Sorp Mass Change (Cycle 1 adsorption, Target RH 50.0%, 25° C.): −0.0817%
Sorp Mass Change (Cycle 1 adsorption, Target RH 60.0%, 25° C.): 0.0329%
Sorp Mass Change (Cycle 1 adsorption, Target RH 70.0%, 25° C.): 0.1086%
Sorp Mass Change (Cycle 1 adsorption, Target RH 80.0%, 25° C.): 0.2342%
Sorp Mass Change (Cycle 1 adsorption, Target RH 90.0%, 25° C.): 0.5631%
Sorp Mass Change (Cycle 1 desorption, Target RH 0.0%, 25° C.): −0.2816%
Sorp Mass Change (Cycle 1 desorption, Target RH 10.0%, 25° C.): −0.2093%
Sorp Mass Change (Cycle 1 desorption, Target RH 20.0%, 25° C.): −0.1545%
Sorp Mass Change (Cycle 1 desorption, Target RH 30.0%, 25° C.): −0.1076%
Sorp Mass Change (Cycle 1 desorption, Target RH 40.0%, 25° C.): −0.0548%
Sorp Mass Change (Cycle 1 desorption, Target RH 50.0%, 25° C.): 0.0100%
Sorp Mass Change (Cycle 1 desorption, Target RH 60.0%, 25° C.): 0.0743%
Sorp Mass Change (Cycle 1 desorption, Target RH 70.0%, 25° C.): 0.1610%
Sorp Mass Change (Cycle 1 desorption, Target RH 80.0%, 25° C.): 0.2905%
Sorp Mass Change (Cycle 1 desorption, Target RH 90.0%, 25° C.): 0.5631%
Sorp Mass Change (Cycle 1 readsorption, Target RH 0.0%, 25° C.): −0.2816%
Sorp Mass Change (Cycle 1 readsorption, Target RH 10.0%, 25° C.): −0.2138%
Sorp Mass Change (Cycle 1 readsorption, Target RH 20.0%, 25° C.): −0.1620%
Sorp Mass Change (Cycle 1 readsorption, Target RH 30.0%, 25° C.): −0.1146%
Sorp Mass Change (Cycle 1 readsorption, Target RH 40.0%, 25° C.): −0.0643%
Sorp Mass Change (Cycle 2 desorption (first segment, RH 40 to 90), Target RH 40.0%, 25° C.): −0.0643%
Sorp Mass Change (Cycle 2 desorption (first segment, RH 40 to 90), Target RH 50.0%, 25° C.): −0.0100%
Sorp Mass Change (Cycle 2 desorption (first segment, RH 40 to 90), Target RH 60.0%, 25° C.): 0.0513%
Sorp Mass Change (Cycle 2 desorption (first segment, RH 40 to 90), Target RH 70.0%, 25° C.): 0.1281%
Sorp Mass Change (Cycle 2 desorption (first segment, RH 40 to 90), Target RH 80.0%, 25° C.): 0.2567%
Sorp Mass Change (Cycle 2 desorption (first segment, RH 40 to 90), Target RH 90.0%, 25° C.): 0.5397%
Sorp Mass Change (Cycle 2 desorption (second segment, RH 90 to 0), Target RH 0.0%, 25° C.): −0.2836%
Sorp Mass Change (Cycle 2 desorption (second segment, RH 90 to 0), Target RH 10.0%, 25° C.): −0.2093%
Sorp Mass Change (Cycle 2 desorption (second segment, RH 90 to 0), Target RH 20.0%, 25° C.): −0.1565%
Sorp Mass Change (Cycle 2 desorption (second segment, RH 90 to 0), Target RH 30.0%, 25° C.): −0.1032%
Sorp Mass Change (Cycle 2 desorption (second segment, RH 90 to 0), Target RH 40.0%, 25° C.): −0.0528%
Sorp Mass Change (Cycle 2 desorption (second segment, RH 90 to 0), Target RH 50.0%, 25° C.): 0.0045%
Sorp Mass Change (Cycle 2 desorption (second segment, RH 90 to 0), Target RH 60.0%, 25° C.): 0.0738%
Sorp Mass Change (Cycle 2 desorption (second segment, RH 90 to 0), Target RH 70.0%, 25° C.): 0.1535%
Sorp Mass Change (Cycle 2 desorption (second segment, RH 90 to 0), Target RH 80.0%, 25° C.): 0.2771%
Sorp Mass Change (Cycle 2 desorption (second segment, RH 90 to 0), Target RH 90.0%, 25° C.): 0.5397%
Sorp Mass Change (Cycle 2 readsorption, Target RH 0.0%, 25° C.): −0.2863%
Sorp Mass Change (Cycle 2 readsorption, Target RH 10.0%, 25° C.): −0.2168%
Sorp Mass Change (Cycle 2 readsorption, Target RH 20.0%, 25° C.): −0.1630%
Sorp Mass Change (Cycle 2 readsorption, Target RH 30.0%, 25° C.): −0.1116%
Sorp Mass Change (Cycle 2 readsorption, Target RH 40.0%, 25° C.): −0.0653%
water taken up (isotherm plot) (between 40% RH and 90% RH, 25° C.): < 0.6%
phase change after GVS experiment (XRPD) (sample retrieved at end of GVS): no overall phase change
Compound: C1=C2COC/C=C/COCc3cc(ccc3OCCN3CCCC3)Nc3nccc(n3)C(=C1)O2 [Batch 4]
